Assay results from US11081236B2, “Diagnostic and therapeutic methods for the treatment of breast cancer” (GENENTECH, INC., priority 2018, dated 2021).

Legend:
Type in all cases: cell-based
MDA-MB-330 = assay: RNA sequencing after E2 or DMSO treatment, MDA-MB-330
Procedure: (§1) To derive a transcriptional signature of ER pathway activity, RNA sequencing was performed on seven breast cancer cell lines following treatment with either DMSO or 1 μM estradiol (E2) for 24 hours. Briefly, RNA libraries for cell lines were made with TRUSEQ® RNA sample preparation kit (ILLUMINA®) according to the manufacturer's protocol. The libraries were sequenced on an ILLUMINA® Hi Seq 2000, using 1-4 lanes per cell line. RNA sequencing (RNA-seq) data were analyzed with HTSeqGenie (R package version 3.14.0) in BioConductor (Huber et al. Nature Methods. 112:115-21, 2015) as follows: reads were trimmed to 75 base pairs (bp), filtered for quality and rRNA/adapter contamination, and aligned to the reference genome GRCh38 using GSNAP (Wu et al. Bioinforma Oxf Engl. 26:873-81, 2010). Gene expression was quantified as Reads per Kilobase of exon model per Million mapped reads normalized by size factor (nRPKM), defined as number of reads aligning to a gene in a sample/(total number of uniquely mapped reads for that sample x gene length x size factor). Genes without gene symbol and genes of uncertain function (LOC and Corf symbols) were excluded.

HCC1500 = assay: RNA sequencing after E2 or DMSO treatment, HCC1500
Procedure: as §1

MCF7 = assay: RNA sequencing after E2 or DMSO treatment, MCF7
Procedure: as §1

EFM19 = assay: RNA sequencing after E2 or DMSO treatment, EFM19
Procedure: as §1

[1] = gene BAMBI, 1 μM E2 24 hours vs DMSO
[2] = gene BCAS1, 1 μM E2 24 hours vs DMSO
[3] = gene CCNG2, 1 μM E2 24 hours vs DMSO
[4] = gene DDEE4, 1 μM E2 24 hours vs DMSO
[5] = gene EGLN3, 1 μM E2 24 hours vs DMSO
[6] = gene FAM1718, 1 μM E2 24 hours vs DMSO
[7] = gene GRM4, 1 μM E2 24 hours vs DMSO
[8] = gene IL1R1, 1 μM E2 24 hours vs DMSO
[9] = gene LIPH, 1 μM E2 24 hours vs DMSO
[10] = gene NBEA, 1 μM E2 24 hours vs DMSO
[11] = gene PNPLA7, 1 μM E2 24 hours vs DMSO
[12] = gene PSCA, 1 μM E2 24 hours vs DMSO
[13] = gene SEMASE, 1 μM E2 24 hours vs DMSO
[14] = gene SSPO, 1 μM E2 24 hours vs DMSO
[15] = gene STON1, 1 μM E2 24 hours vs DMSO
[16] = gene TGFB3, 1 μM E2 24 hours vs DMSO
[17] = gene TP53INP1, 1 μM E2 24 hours vs DMSO
[18] = gene TP53INP2, 1 μM E2 24 hours vs DMSO

C[C@]12CC[C@@H]3c4ccc(O)cc4CC[C@H]3[C@@H]1CC[C@@H]2O [Compound E2, estradiol]
Log2 FC E2 vs no E2: BAMBI (MDA-MB-330; [1]): −1.352
Log2 FC E2 vs no E2: BCAS1 (MDA-MB-330; [2]): −1.772
Log2 FC E2 vs no E2: CCNG2 (MDA-MB-330; [3]): −1.009
Log2 FC E2 vs no E2: DDEE4 (MDA-MB-330; [4]): −1.321
Log2 FC E2 vs no E2: EGLN3 (MDA-MB-330; [5]): −2.785
Log2 FC E2 vs no E2: FAM1718 (MDA-MB-330; [6]): −2.790
Log2 FC E2 vs no E2: GRM4 (MDA-MB-330; [7]): −2.281
Log2 FC E2 vs no E2: IL1R1 (MDA-MB-330; [8]): −0.941
Log2 FC E2 vs no E2: LIPH (MDA-MB-330; [9]): −1.737
Log2 FC E2 vs no E2: NBEA (MDA-MB-330; [10]): −1.044
Log2 FC E2 vs no E2: PNPLA7 (MDA-MB-330; [11]): −1.084
Log2 FC E2 vs no E2: PSCA (MDA-MB-330; [12]): −2.529
Log2 FC E2 vs no E2: SEMASE (MDA-MB-330; [13]): −2.427
Log2 FC E2 vs no E2: SSPO (MDA-MB-330; [14]): −1.383
Log2 FC E2 vs no E2: STON1 (MDA-MB-330; [15]): −1.081
Log2 FC E2 vs no E2: TGFB3 (MDA-MB-330; [16]): −1.111
Log2 FC E2 vs no E2: TP53INP1 (MDA-MB-330; [17]): −1.304
Log2 FC E2 vs no E2: TP53INP2 (MDA-MB-330; [18]): −1.210
Log2 FC E2 vs no E2: BAMBI (HCC1500; [1]): −1.438
Log2 FC E2 vs no E2: BCAS1 (HCC1500; [2]): −2.105
Log2 FC E2 vs no E2: CCNG2 (HCC1500; [3]): −1.525
Log2 FC E2 vs no E2: DDEE4 (HCC1500; [4]): −1.865
Log2 FC E2 vs no E2: EGLN3 (HCC1500; [5]): −2.504
Log2 FC E2 vs no E2: FAM1718 (HCC1500; [6]): −0.683
Log2 FC E2 vs no E2: GRM4 (HCC1500; [7]): −1.071
Log2 FC E2 vs no E2: IL1R1 (HCC1500; [8]): −1.943
Log2 FC E2 vs no E2: LIPH (HCC1500; [9]): −1.384
Log2 FC E2 vs no E2: NBEA (HCC1500; [10]): −1.190
Log2 FC E2 vs no E2: PNPLA7 (HCC1500; [11]): −1.376
Log2 FC E2 vs no E2: PSCA (HCC1500; [12]): −1.726
Log2 FC E2 vs no E2: SEMASE (HCC1500; [13]): −1.058
Log2 FC E2 vs no E2: SSPO (HCC1500; [14]): −1.304
Log2 FC E2 vs no E2: STON1 (HCC1500; [15]): −1.279
Log2 FC E2 vs no E2: TGFB3 (HCC1500; [16]): −1.214
Log2 FC E2 vs no E2: TP53INP1 (HCC1500; [17]): −1.777
Log2 FC E2 vs no E2: TP53INP2 (HCC1500; [18]): −1.073
Log2 FC E2 vs no E2: BAMBI (MCF7; [1]): −0.571
Log2 FC E2 vs no E2: BCAS1 (MCF7; [2]): −0.981
Log2 FC E2 vs no E2: CCNG2 (MCF7; [3]): −1.267
Log2 FC E2 vs no E2: DDEE4 (MCF7; [4]): −1.080
Log2 FC E2 vs no E2: EGLN3 (MCF7; [5]): −1.090
Log2 FC E2 vs no E2: FAM1718 (MCF7; [6]): −1.287
Log2 FC E2 vs no E2: GRM4 (MCF7; [7]): −1.106
Log2 FC E2 vs no E2: IL1R1 (MCF7; [8]): −2.160
Log2 FC E2 vs no E2: LIPH (MCF7; [9]): −1.170
Log2 FC E2 vs no E2: NBEA (MCF7; [10]): −1.132
Log2 FC E2 vs no E2: PNPLA7 (MCF7; [11]): −1.046
Log2 FC E2 vs no E2: PSCA (MCF7; [12]): −2.199
Log2 FC E2 vs no E2: SEMASE (MCF7; [13]): −1.034
Log2 FC E2 vs no E2: SSPO (MCF7; [14]): −1.338
Log2 FC E2 vs no E2: STON1 (MCF7; [15]): −2.067
Log2 FC E2 vs no E2: TGFB3 (MCF7; [16]): −1.707
Log2 FC E2 vs no E2: TP53INP1 (MCF7; [17]): −1.816
Log2 FC E2 vs no E2: TP53INP2 (MCF7; [18]): −1.207
Log2 FC E2 vs no E2: BAMBI (EFM19; [1]): −1.554
Log2 FC E2 vs no E2: BCAS1 (EFM19; [2]): −2.189
Log2 FC E2 vs no E2: CCNG2 (EFM19; [3]): −1.442
Log2 FC E2 vs no E2: DDEE4 (EFM19; [4]): −1.101
Log2 FC E2 vs no E2: EGLN3 (EFM19; [5]): −1.008
Log2 FC E2 vs no E2: FAM1718 (EFM19; [6]): −1.910
Log2 FC E2 vs no E2: GRM4 (EFM19; [7]): −1.141
Log2 FC E2 vs no E2: IL1R1 (EFM19; [8]): −2.327
Log2 FC E2 vs no E2: LIPH (EFM19; [9]): −1.844
